Measurements taken from patent US4156000A, “Cyclopenta[b]thiophene derivatives” (Hexachimie, priority 1976, dated 1979).
Where a name gives a salt, the structure may show the parent alone.

Experiments:
[1] = tested on: rear paw which has received the carrageenin; assay: Anti-inflammatory activity: carrageenin-induced rear paw swelling, oral administration; format: in vivo, rats (male SPF, strain OFA); settings: for inhibition in vivo at 4 mg/kg / inhibition in vivo at 16 mg/kg / inhibition in vivo at 64 mg/kg / inhibition in vivo at 128 mg/kg / inhibition in vivo at 256 mg/kg: Rattus norvegicus, read-out: % of inhibition (reduction of swelling); for inhibition in vivo at 4 mg/kg: 4 mg/kg oral administration; for inhibition in vivo at 16 mg/kg: 16 mg/kg oral administration; for inhibition in vivo at 128 mg/kg: 128 mg/kg oral administration; for inhibition in vivo at 256 mg/kg: 256 mg/kg oral administration
Experimental: Batches of 12 male SPF rats, strain OFA, weighing 120-130 g each, are given the product to be tested by oral administration 2 hours before and 30 minutes before (1/2 dose each time) subcutaneous plantar injection of 0.05 cm^3 of a 1% solution of carrageenin. The volume of the rear paw which has received the carrageenin is measured at regular intervals.

[2] = tested on: pain reactions (abdominal contortions); assay: Analgesic activity: phenylbenzoquinone-induced pain reactions, oral administration; format: in vivo, mice (male, SPF1, strain OF1); settings: Mus musculus; for inhibition in vivo at 16 mg/kg: 16 mg/kg oral administration; for inhibition in vivo at 32 mg/kg: 32 mg/kg oral administration; for inhibition in vivo at 64 mg/kg: 64 mg/kg oral administration; for inhibition in vivo at 256 mg/kg: 256 mg/kg oral administration; for inhibition in vivo at 8 mg/kg: 8 mg/kg oral administration; for inhibition in vivo at 4 mg/kg: 4 mg/kg oral administration
Experimental: Batches of 6 male mice (SPF1, strain OF1), weighing 19-20 g each are given the product to be tested, by oral administration. One hour afterwards, each mouse is injected intraperitoneally with 0.3 cm^3 of an 0.02% strength phenylbenzoquinone solution and from the 5th to the 10th minute after this latter treatment, the number of pain reactions (abdominal contortions) is counted. The table which follows gives the percentage inhibition of these reactions.

Compound	inhibition in vivo at 4 mg/kg [1]	inhibition in vivo at 16 mg/kg [1]	inhibition in vivo at 64 mg/kg ([1]; 64 mg/kg oral administration)	inhibition in vivo at 128 mg/kg [1]	inhibition in vivo at 256 mg/kg [1]	inhibition in vivo at 16 mg/kg [2]	inhibition in vivo at 32 mg/kg [2]	inhibition in vivo at 64 mg/kg [2]	inhibition in vivo at 256 mg/kg [2]	inhibition in vivo at 8 mg/kg [2]	inhibition in vivo at 4 mg/kg [2]	% of inhibition (reduction of swelling) ([1]; 64 mg/kg oral administration)
CCC1Cc2cc(CC(=O)OCCN3CCOCC3)sc2C1 (stereo not shown) [Example 32, Hydrochloride of the morpholinoethyl ester of (5-ethyl-4.5-dihydro-6H-cyclopenta[b]thienyl-2)-acetic acid]	0%	16%	20%	51%	53%	25%	48%	53%	–	–	–	–
CC(C)C1Cc2cc(CC(=O)O)sc2C1 (stereo not shown) [Example 18, (5-Isopropyl-4,5-dihydro-6H-cyclopenta[b]thienyl-2)-acetic acid]	0%	0%	31%	47%	57%	4%	27%	61%	–	–	–	–
CC(C)C1Cc2cc(CC(=O)OCCN(C)C)sc2C1 (stereo not shown) [Example 40, Hydrochloride of the dimethylaminoethyl ester of (5-isopropyl-4,5-dihydro-6H-cyclopenta[b]thienyl-2)-acetic acid]	8%	7%	13%	22%	32%	0%	–	31%	88%	–	–	–
CCC1Cc2cc(C(C)C(=O)O)sc2C1 (stereo not shown) [23 & 27]	–	30%	67%	66%	56%	35%	79%	98%	–	7%	–	–
CCC1Cc2cc(CC(=O)OCCN(C)C)sc2C1 (stereo not shown) [Example 33, Hydrochloride of the dimethylaminoethyl ester of (5-ethyl-4,5-dihydro-6H-cyclopenta[b]thienyl-2)-acetic acid]	2%	17%	55%	54%	52%	37%	–	17%	95%	–	–	–
CC(C)C1Cc2cc(CC(=O)OCCN3CCOCC3)sc2C1 (stereo not shown) [Example 39, Hydrochloride of the morpholinoethyl ester of (5-isopropyl-4,5-dihydro-6H-cyclopenta[b]thienyl-2)-acetic acid]	7%	23%	20%	53%	56%	–	–	12%	53%	–	–	–
CCC1Cc2cc(C(C)C(=O)OCCN3CCOCC3)sc2C1 (stereo not drawn) [Example 30, Hydrochloride of the morpholinoethyl ester of α-methyl(5-ethyl-4,5-dihydro-6H-cyclopenta[b]thienyl-2)-acetic acid]	18%	38%	53%	67%	79%	6%	85%	93%	–	9%	–	–
CCC1Cc2cc(C(C)C(=O)OCCN(C)C)sc2C1 (stereo not drawn) [Example 34, Hydrochloride of the dimethylaminoethyl ester of α-methyl-(5-ethyl-4,5-dihydro-6H-cyclopenta[b]thienyl-2)-acetic acid]	3%	12%	45%	64%	82%	74%	95%	–	–	46%	21%	–
CC(C(=O)OCCN1CCOCC1)c1cc2c(s1)CC(C(C)C)C2 (stereo not drawn) [Example 36, Hydrochloride of the morpholinoethyl ester of α-methyl-(5-isopropyl-4,5-dihydro-6H-cyclopenta[b]thienyl-2)-acetic acid]	29%	30%	62%	56%	66%	80%	84%	–	–	23%	–	–
CC(C(=O)OCCN(C)C)c1cc2c(s1)CC(C(C)C)C2 (stereo not shown) [Example 37]	5%	35%	–	63%	58%	42%	80%	–	–	53%	10%	45Z
CCC1Cc2cc(CC(=O)O)sc2C1 (stereo not shown) [Example 17, (5-Ethyl-4,5-dihydro-6H-cyclopenta[b]thienyl-2)-acetic acid]	17%	24%	55%	52%	66%	17%	58%	63%	–	–	–	–
CC(C(=O)O)c1cc2c(s1)CC(C(C)C)C2 (stereo not shown) [24 & 28]	0%	32%	63%	59%	46%	66%	89%	96%	–	35%	0%	–
